In the supplement of paper PMC10307832:

compound: COc1cc(-c2nn([C@H]3CC[C@H](N4CCN(C(C)=O)CC4)CC3)c3ncnc(N)c23)ccc1NC(=O)c1cc2ccccc2n1C + COc1cccc2cc(-c3nc([C@H]4CC[C@H](C(=O)O)CC4)n4ncnc(N)c34)[nH]c12 [OSI-027] (partner 0.5 µM); experiment: relative viability (nuclei count vs DMSO), 5 days (fraction); higher = more cells survive; conditions: first compound 0.0128 µM
In short: (§1)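 Nuclei were stained with Hoechst during a one-step fixation (final 0.05% Triton X-100, 1% formaldehyde, 1 ug/ml Hoechst) carried out 5 days after dosing, then counted on 4× images. The cells, lung cancer lines in 1536-well plates, had been dosed by pin tool the day after seeding with one drug alone or a fixed anchor-drug dose plus five library-drug doses (not always all listed) in √10 steps. Relative viability is the nuclei count in treated wells divided by that in vehicle wells, and each value is the median of duplicate plates.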

Question: With NCI-H2342 as the cell line, how does the relative viability read?
Answer: 0.521

Question: With NCI-H1623 as the cell line, how does the relative viability read?
Answer: 0.422

Question: With NCI-H727 as the cell line, how does the relative viability read?
Answer: 0.591

Question: NCI-H1650 was tested. Which relative viability did it give?
Answer: 0.54

Question: NCI-H1993 was tested. Which relative viability did it give?
Answer: 0.52

Question: How did the relative viability turn out when SW 1573 was run?
Answer: 0.68

Question: Which relative viability does the source give for NCI-H838 here?
Answer: 0.38

Question: With LCLC-103H as the cell line, how does the relative viability read?
Answer: 0.47

Question: NCI-H520 was tested. Which relative viability did it give?
Answer: 0.191

Question: Which relative viability does the source give for HCC-366 here?
Answer: 0.803

Question: With NCI-H1648 as the cell line, how does the relative viability read?
Answer: 0.27

Question: Which relative viability does the source give for ChaGo-K-1 here?
Answer: 0.607

Question: How did the relative viability turn out when NCI-H2170 was run?
Answer: 0.81

Question: For NCI-H522, which relative viability is on record?
Answer: 0.8

Question: With SW 900 as the cell line, how does the relative viability read?
Answer: 0.536

Question: How did the relative viability turn out when HCC-78 was run?
Answer: 0.341

same assay, conditions: first compound 0.04048 µM

Question: With NCI-H2342 as the cell line, how does the relative viability read?
Answer: 0.706

Question: For NCI-H1623, which relative viability is on record?
Answer: 0.342

Question: With NCI-H1650 as the cell line, how does the relative viability read?
Answer: 0.707

Question: Which relative viability does the source give for NCI-H1993 here?
Answer: 0.575

Question: SW 1573 was tested. Which relative viability did it give?
Answer: 0.691

Question: NCI-H838 was tested. Which relative viability did it give?
Answer: 0.375

Question: Which relative viability does the source give for LCLC-103H here?
Answer: 0.469

Question: Which relative viability does the source give for NCI-H520 here?
Answer: 0.252

Question: With HCC-366 as the cell line, how does the relative viability read?
Answer: 0.347

Question: Which relative viability does the source give for NCI-H1648 here?
Answer: 0.257

Question: ChaGo-K-1 was tested. Which relative viability did it give?
Answer: 0.532

Question: Which relative viability does the source give for NCI-H2170 here?
Answer: 0.468

Question: With NCI-H522 as the cell line, how does the relative viability read?
Answer: 0.725

Question: SW 900 was tested. Which relative viability did it give?
Answer: 0.588

Question: How did the relative viability turn out when HCC-78 was run?
Answer: 0.371

same assay, conditions: first compound 0.128 µM

Question: With NCI-H2342 as the cell line, how does the relative viability read?
Answer: 0.644

Question: Which relative viability does the source give for NCI-H1623 here?
Answer: 0.399

Question: How did the relative viability turn out when NCI-H727 was run?
Answer: 0.477

Question: How did the relative viability turn out when NCI-H1650 was run?
Answer: 0.492

Question: Which relative viability does the source give for NCI-H1993 here?
Answer: 0.552

Question: Which relative viability does the source give for SW 1573 here?
Answer: 0.624

Question: NCI-H838 was tested. Which relative viability did it give?
Answer: 0.422

Question: How did the relative viability turn out when LCLC-103H was run?
Answer: 0.493

Question: With NCI-H520 as the cell line, how does the relative viability read?
Answer: 0.201

Question: How did the relative viability turn out when HCC-366 was run?
Answer: 0.882

Question: Which relative viability does the source give for NCI-H1648 here?
Answer: 0.274

Question: ChaGo-K-1 was tested. Which relative viability did it give?
Answer: 0.519

Question: NCI-H2170 was tested. Which relative viability did it give?
Answer: 0.701

Question: Which relative viability does the source give for NCI-H522 here?
Answer: 0.812

Question: With SW 900 as the cell line, how does the relative viability read?
Answer: 0.497

Question: How did the relative viability turn out when HCC-78 was run?
Answer: 0.356

same assay, conditions: first compound 1.28 µM

Question: With NCI-H2342 as the cell line, how does the relative viability read?
Answer: 0.493

Question: How did the relative viability turn out when NCI-H1623 was run?
Answer: 0.37

Question: For NCI-H727, which relative viability is on record?
Answer: 0.47

Question: For NCI-H1650, which relative viability is on record?
Answer: 0.577

Question: With NCI-H1993 as the cell line, how does the relative viability read?
Answer: 0.431

Question: Which relative viability does the source give for SW 1573 here?
Answer: 0.466

Question: NCI-H838 was tested. Which relative viability did it give?
Answer: 0.359

Question: Which relative viability does the source give for LCLC-103H here?
Answer: 0.417

Question: Which relative viability does the source give for NCI-H520 here?
Answer: 0.174

Question: HCC-366 was tested. Which relative viability did it give?
Answer: 0.772

Question: For NCI-H1648, which relative viability is on record?
Answer: 0.276

Question: With ChaGo-K-1 as the cell line, how does the relative viability read?
Answer: 0.464

Question: NCI-H2170 was tested. Which relative viability did it give?
Answer: 0.687

Question: For NCI-H522, which relative viability is on record?
Answer: 0.651

Question: How did the relative viability turn out when SW 900 was run?
Answer: 0.356

Question: How did the relative viability turn out when HCC-78 was run?
Answer: 0.26

compound: CO[C@@H]1[C@H](N(C)C(=O)c2ccccc2)C[C@H]2O[C@]1(C)n1c3ccccc3c3c4c(c5c6ccccc6n2c5c31)C(=O)NC4 [Midostaurin] + C[C@]1(O)C[C@@H](c2nc(-c3ccc4ccc(-c5ccccc5)nc4c3)c3c(N)nccn32)C1 [Linsitinib] (partner 1 µM); experiment: as above; conditions: first compound 0.01 µM
In short: as §1

Question: With NCI-H727 as the cell line, how does the relative viability read?
Answer: 0.329

Question: EBC-1 was tested. Which relative viability did it give?
Answer: 0.901

Question: For NCI-H1703, which relative viability is on record?
Answer: 0.838

Question: For NCI-H1993, which relative viability is on record?
Answer: 0.782

Question: Which relative viability does the source give for SW 1573 here?
Answer: 0.747

Question: With NCI-H838 as the cell line, how does the relative viability read?
Answer: 1.01

Question: For LCLC-103H, which relative viability is on record?
Answer: 1.12

Question: For NCI-H520, which relative viability is on record?
Answer: 0.924

Question: With Calu-6 as the cell line, how does the relative viability read?
Answer: 0.946

Question: HCC-366 was tested. Which relative viability did it give?
Answer: 0.624

Question: For IA-LM, which relative viability is on record?
Answer: 0.557

Question: A549 was tested. Which relative viability did it give?
Answer: 0.609

Question: Which relative viability does the source give for HCC-78 here?
Answer: 0.53

Question: How did the relative viability turn out when NCI-H1299 was run?
Answer: 0.943

same assay, conditions: first compound 0.03162 µM

Question: With NCI-H727 as the cell line, how does the relative viability read?
Answer: 0.337

Question: For EBC-1, which relative viability is on record?
Answer: 0.735

Question: How did the relative viability turn out when NCI-H1703 was run?
Answer: 0.69

Question: NCI-H1993 was tested. Which relative viability did it give?
Answer: 0.712

Question: Which relative viability does the source give for SW 1573 here?
Answer: 0.848

Question: NCI-H838 was tested. Which relative viability did it give?
Answer: 0.828

Question: LCLC-103H was tested. Which relative viability did it give?
Answer: 1.16

Question: How did the relative viability turn out when NCI-H520 was run?
Answer: 0.991

Question: How did the relative viability turn out when Calu-6 was run?
Answer: 0.889

Question: HCC-366 was tested. Which relative viability did it give?
Answer: 0.754

Question: How did the relative viability turn out when IA-LM was run?
Answer: 0.378

Question: A549 was tested. Which relative viability did it give?
Answer: 0.59

Question: For HCC-78, which relative viability is on record?
Answer: 0.483

Question: Which relative viability does the source give for NCI-H1299 here?
Answer: 0.91

same assay, conditions: first compound 0.1 µM

Question: How did the relative viability turn out when NCI-H727 was run?
Answer: 0.349

Question: With EBC-1 as the cell line, how does the relative viability read?
Answer: 0.873

Question: With NCI-H1703 as the cell line, how does the relative viability read?
Answer: 0.672

Question: Which relative viability does the source give for NCI-H1993 here?
Answer: 0.655

Question: With SW 1573 as the cell line, how does the relative viability read?
Answer: 0.979

Question: How did the relative viability turn out when NCI-H838 was run?
Answer: 0.739

Question: How did the relative viability turn out when LCLC-103H was run?
Answer: 1.16

Question: With NCI-H520 as the cell line, how does the relative viability read?
Answer: 0.968

Question: For Calu-6, which relative viability is on record?
Answer: 1

Question: How did the relative viability turn out when HCC-366 was run?
Answer: 0.457

Question: For IA-LM, which relative viability is on record?
Answer: 0.711

Question: For A549, which relative viability is on record?
Answer: 0.511

Question: For HCC-78, which relative viability is on record?
Answer: 0.556

Question: For NCI-H1299, which relative viability is on record?
Answer: 0.95

same assay, conditions: first compound 0.3162 µM

Question: NCI-H727 was tested. Which relative viability did it give?
Answer: 0.227

Question: How did the relative viability turn out when EBC-1 was run?
Answer: 0.24

Question: Which relative viability does the source give for NCI-H1703 here?
Answer: 0.296

Question: Which relative viability does the source give for NCI-H1993 here?
Answer: 0.669

Question: How did the relative viability turn out when SW 1573 was run?
Answer: 1.02

Question: For NCI-H838, which relative viability is on record?
Answer: 0.367

Question: LCLC-103H was tested. Which relative viability did it give?
Answer: 1.14

Question: With NCI-H520 as the cell line, how does the relative viability read?
Answer: 0.787

Question: Which relative viability does the source give for Calu-6 here?
Answer: 0.922

Question: With HCC-366 as the cell line, how does the relative viability read?
Answer: 0.381

Question: For IA-LM, which relative viability is on record?
Answer: 0.673

Question: With A549 as the cell line, how does the relative viability read?
Answer: 0.423

Question: Which relative viability does the source give for HCC-78 here?
Answer: 0.278

Question: How did the relative viability turn out when NCI-H1299 was run?
Answer: 0.616

compound: COc1cc(-c2nn([C@H]3CC[C@H](N4CCN(C(C)=O)CC4)CC3)c3ncnc(N)c23)ccc1NC(=O)c1cc2ccccc2n1C + CCNC(=O)c1noc(-c2cc(C(C)C)c(O)cc2O)c1-c1ccc(CN2CCOCC2)cc1 [Luminespib] (partner 0.01 µM); experiment: as above; conditions: first compound 0.0128 µM
In short: as §1

Question: How did the relative viability turn out when NCI-H2342 was run?
Answer: 0.723

Question: With NCI-H1623 as the cell line, how does the relative viability read?
Answer: 0.473

Question: For NCI-H727, which relative viability is on record?
Answer: 0.417

Question: Which relative viability does the source give for NCI-H1650 here?
Answer: 0.162

Question: Which relative viability does the source give for NCI-H1993 here?
Answer: 0.768

Question: With SW 1573 as the cell line, how does the relative viability read?
Answer: 0.225

Question: For NCI-H838, which relative viability is on record?
Answer: 0.343

Question: LCLC-103H was tested. Which relative viability did it give?
Answer: 0.985

Question: Which relative viability does the source give for NCI-H520 here?
Answer: 0.219

Question: Which relative viability does the source give for ChaGo-K-1 here?
Answer: 0.721

Question: For NCI-H2170, which relative viability is on record?
Answer: 0.663

Question: For NCI-H522, which relative viability is on record?
Answer: 1.25

Question: How did the relative viability turn out when SW 900 was run?
Answer: 0.178

same assay, conditions: first compound 0.04048 µM

Question: NCI-H2342 was tested. Which relative viability did it give?
Answer: 0.717

Question: With NCI-H1623 as the cell line, how does the relative viability read?
Answer: 0.514

Question: For NCI-H1650, which relative viability is on record?
Answer: 0.194

Question: With NCI-H1993 as the cell line, how does the relative viability read?
Answer: 0.825

Question: How did the relative viability turn out when SW 1573 was run?
Answer: 0.229

Question: Which relative viability does the source give for NCI-H838 here?
Answer: 0.303

Question: How did the relative viability turn out when LCLC-103H was run?
Answer: 1.18

Question: NCI-H520 was tested. Which relative viability did it give?
Answer: 0.211

Question: Which relative viability does the source give for ChaGo-K-1 here?
Answer: 0.615

Question: Which relative viability does the source give for NCI-H2170 here?
Answer: 0.79
